Results as given in US20010046979A1, “Acidic antimicrobial compositions for treating food and food contact surfaces and methods of use thereof” (priority 2000, published 2001).

Experiments:
Assay in all cases: Antimicrobial effectiveness on inoculated broccoli, 5 minute soak
Type in all cases: cell-based
Salmonella = conditions: 0 gpg water
Procedure: (§1) Concentrated powdered compositions E and F are prepared and dissolved in deionized and hard water (10 gpg) at a level of 5 grams of composition per Liter of water to form a dilute aqueous treatment composition. The dilute aqueous treatment compositions are then tested on broccoli samples for antimicrobial effectiveness.
(§2) A Broccoli sample is innoculated with a bacterial solution containing ≧10^8 cfu bacterium per ml. Application of 100 microliters of this solution to the surface results in approximately 10^6 to 10^7 cfu per broccoli piece. Equal amounts of small spots are deposited to facilitate drying. After 30 minutes dry time the sample is placed in 50 ml of the dilute aqueous treatment composition for a 5 minute soak. After the 5 minute soak the sample is transferred to 50 ml of a neutralizer before being stomached for 2 minutes and subsequently plated to enumerate the organisms surviving the treatments. Suprisingly the acid-anionic system maintained equal or better antimicrobial activity vs. 200 ppm hypochlorite bleach over the range from 0 to 10 gpg, as shown by the data in the following Tables.
(§3) Composition E is further tested on Salmonella and Listeria on broccoli with similar results.

Listeria = conditions: 0 gpg water
Procedure: as §1, §2, §3

E-Coli = conditions: 5 g/L
Procedure: as §1, §2

Staph aureus = conditions: 5 g/L
Procedure: as §1, §2

**Q.** `[Na+].[O-]Cl` [200 ppm NaOCl, NaOCl] was tested. Which “Log Reduction (greater than water alone) in 5 minutes” value (Salmonella) did it give?
**A.** 0.67 log

**Q.** What about the “Log Reduction (greater than water alone) in 5 minutes” value (Listeria) of the same molecule?
**A.** 0.77 log

**Q.** What about the “Log Reduction (greater than water alone) in 5 minutes” value (E-Coli; 0 gpg water) of the same molecule?
**A.** 0.86 log

**Q.** What about the “Log Reduction in 5 minutes” value (E-Coli; 0 gpg water) of the same molecule?
**A.** 1.2 log

**Q.** And the “Log Reduction (greater than water alone) in 5 minutes” value (E-Coli; 10 gpg water)?
**A.** 0.93 log

**Q.** What about the “Log Reduction in 5 minutes” value (E-Coli; 10 gpg water) of the same molecule?
**A.** 1.3 log

**Q.** What about the “Log Reduction (greater than water alone) in 5 minutes” value (Staph aureus; 0 gpg water) of the same molecule?
**A.** 1.08 log

**Q.** What about the “Log Reduction in 5 minutes” value (Staph aureus; 0 gpg water) of the same molecule?
**A.** 1.5 log

**Q.** What about the “Log Reduction (greater than water alone) in 5 minutes” value (Staph aureus; 10 gpg water) of the same molecule?
**A.** 0.89 log

**Q.** And the “Log Reduction in 5 minutes” value (Staph aureus; 10 gpg water)?
**A.** 1.3 log
